Test results published in publication PMC9036659, “Boron-containing capsaicinoids” (RSC Advances, 2021).

Experiments:
MRSA = test system: MRSA; set-up: method as in doi:10.1139/cjc-2018-0193; settings: data collected in previous study; Inactive = inhibition above 400 μM; cited from earlier work
[1] = test system: vancomycin-resistant Enterococcus; set-up: method as in doi:10.1139/cjc-2018-0193; settings: data collected in previous study, Inactive = inhibition above 400 μM, cited from earlier work
[2] = test system: Staphylococcus warneri (ATCC 17917); test: Antimicrobial assay, S. warneri (OD600); format: cell-based
Protocol: (§1) The microorganisms (methicillin-resistant S. aureus MRSA 310, vancomycin-resistant E. faecium VRE 379, S. warneri (ATCC 17917), P. vulgaris (ATCC 12454), P. aeruginosa (ATCC 14210), and C. albicans (ATCC 14035)) were grown overnight on agar media. The following day the cultures were transferred into 0.9% saline water into a sterile glass tube. Using the McFarland reader, the turbidity was determined and further diluted into their respective media. The pure compounds were tested at seven different concentrations ranging from 2 to 128 μg mL^−1 in triplicate. Samples were plated into 96 well plates (10 μL in 20% DMSO) and then diluted pathogen (90 μL) was pipetted into the pre-prepared sample plates yielding 5 × 10^5 cfu mL^−1 with a final volume of 100 μL. Antibiotics that are active against specific pathogens were used as positive controls. The plates were incubated into a 37 °C incubator for 22 h. Growth of S. warneri. P. vulgaris, P. aeruginosa and C. albicans were measured by reading optical density (OD600), or in the case of slow growing microorganisms (MRSA and VRE), PrestoBlue was used to assess metabolic activity by measuring fluorescence (535–560)/(590–615) (excitation/emission) using a Thermo Scientific Varioskan Flash plate reader at time zero and then again after incubation of the plates for 22 h at 37 °C. After subtracting the time zero OD600 from the final reading, the percentages of microorganism survival relative to vehicle control wells were calculated. […]
(§2) Antimicrobial Assay Data Growth of S. warneri. P. vulgaris, P. aeruginosa and C. albicans were measured by reading optical density (OD600), or in the case of slow growing microorganisms (MRSA and VRE), PrestoBlue was used to assess metabolic activity by measuring fluorescence (535-560)⁄(590-615) (excitation/emission) using a Thermo Scientific Varioskan Flash plate reader at time zero and then again after incubation of the plates for 22 h at 37 °C. After subtracting the time zero OD600 from the final reading, the percentages of microorganism survival relative to vehicle control wells were calculated. […]

[3] = test system: human breast adenocarcinoma cells (ATCC HTB-26 MDA-MB 231); test: Cytotoxicity assay (Alamar blue), HTB-26; format: cell-based; settings: for IC50: Homo sapiens, HTB26, 72 h incubation, average ± SD, Inactive = inhibition above 300 μM, read-out: IC50 HTB (cancer cell line)
Protocol: (§3) The cells (human foreskin BJ fibroblast cells (ATCC CRL-2522), green monkey kidney cells Vero (ATCC CCL-81), human breast adenocarcinoma cells (ATCC HTB-26 MDA-MB 231), human breast adenocarcinoma cells (MCF7 ATCC HTB-22), and human colorectal carcinoma cells (HCT116 ATCC CCL-247)) were grown to 80% confluency, the cells were counted, diluted, and plated into treated 96-well cell culture plates. The BJ fibroblast and Vero cells were plated at a cell density of 10 000 cells per well and the HTB26, HCT116 and MCF7 cells were plated at cell density of 5000 cells per well in 90 μL of respective growth medium (without the addition of antibiotics) and incubated for 24 h to allow cells to adhere to the plates before treatment. Pure compounds were tested in triplicate in serial dilutions of seven concentrations ranging from 2 to 128 μg mL^−1 per well (final well volume of 100 μL, 1% DMSO per well). Each of the cell lines were incubated at 37 °C in a humidified atmosphere of 5% CO2; the BJ fibroblast and Vero cells for 24 h and the HTB-26, HCT116 and MCF7 cells for 72 h. Each plate contained four uninoculated positive controls, four untreated negative controls, and one column containing a concentration range for doxorubicin. Alamar blue was added, 24 h after the treatment, and fluorescence was monitored using a Cytation Gen 5 plate reader using 560 nm Ex/590 Em both at time zero and 4 h after Alamar blue addition. The inferred percentage of cell viability relative to vehicle control wells were calculated after subtracting the time zero emission 590 nm measurement from the final reading and the IC50 was determined. […]
(§4) Cytotoxicity Assay Data Alamar blue was added, 24 h after the treatment, and fluorescence was monitored using a Cytation Gen 5 plate reader using 560 nm Ex/590 Em both at time zero and 4 h after Alamar blue addition. The inferred percentage of cell viability relative to vehicle control wells were calculated after subtracting the time zero emission 590 nm measurement from the final reading and the IC50 was determined.

[4] = test system: methicillin-resistant Staphylococcus aureus MRSA 310; test: Antimicrobial assay, MRSA (PrestoBlue fluorescence); format: cell-based
Protocol: as §1, §2

[5] = test system: human foreskin BJ fibroblast cells (ATCC CRL-2522); test: Cytotoxicity assay (Alamar blue), BJ; format: cell-based; settings: for IC50: Homo sapiens, Fibroblast, 24 h incubation, average ± SD, Inactive = inhibition above 300 μM, read-out: IC50 BJ (normal cell line)
Protocol: as §3, §4

[6] = test system: human breast adenocarcinoma cells (MCF7 ATCC HTB-22); test: Cytotoxicity assay (Alamar blue), MCF7; format: cell-based; settings: for IC50: Homo sapiens, MCF7, 72 h incubation, average ± SD, Inactive = inhibition above 300 μM, read-out: IC50 MCF7 (cancer cell line)
Protocol: as §3, §4

[7] = test system: vancomycin-resistant Enterococcus faecium VRE 379; test: Antimicrobial assay, VRE (PrestoBlue fluorescence); format: cell-based
Protocol: as §1, §2

[8] = test system: human colorectal carcinoma cells (HCT116 ATCC CCL-247); test: Cytotoxicity assay (Alamar blue), HCT116; format: cell-based; settings: for IC50: Homo sapiens, HCT-116, 72 h incubation, average ± SD, Inactive = inhibition above 300 μM, read-out: IC50 HCT (cancer cell line)
Protocol: as §3, §4

[9] = test system: green monkey kidney cells Vero (ATCC CCL-81); test: Cytotoxicity assay (Alamar blue), Vero; format: cell-based; settings: for IC50: Chlorocebus sabaeus, Vero, 24 h incubation, average ± SD, Inactive = inhibition above 300 μM, read-out: IC50 Vero (normal cell line)
Protocol: as §3, §4

[10] = test system: Candida albicans (ATCC 14035); test: Antimicrobial assay, C. albicans (OD600); format: cell-based
Protocol: as §1, §2

[11] = test system: Proteus vulgaris (ATCC 12454); test: Antimicrobial assay, P. vulgaris (OD600); format: cell-based
Protocol: as §1, §2

[12] = test system: Pseudomonas aeruginosa (ATCC 14210); test: Antimicrobial assay, P. aeruginosa (OD600); format: cell-based
Protocol: as §1, §2

[13] = 22 h, 37 °C, Inactive = inhibition above 300 μM
[14] = 22 h, 37 °C, average ± SD, Inactive = inhibition above 300 μM

SMILES | MRSA MIC90 (MRSA) | VRE IC50 [1] | VRE MIC90 [1] | IC50 (MRSA) | cytotoxic activity against HTB-26 MDA-MB 231 (in words) [3] | antimicrobial activity against MRSA (in words) [4] | cytotoxic activity against BJ (in words) [5] | cytotoxic activity against MCF7 (in words) [6] | cytotoxic activity against HCT116 (in words) [8] | cytotoxic activity against Vero (in words) [9] | other results
COc1cc(CNC(=O)CCCC/C=C/C(C)C)ccc1O [Capsaicin] | Inactive | Inactive | Inactive |  |  |  |  |  |  |  | MRSA IC50 (MRSA): Inactive
COc1cc(CNC(=O)CCCCB2OC(C)(C)C(C)(C)O2)ccc1OCc1ccccc1 [Compound 8a] | Inactive | Inactive | Inactive | 107 µM |  |  |  |  |  |  | 
COc1cc(CNC(=O)CCCCCCCCCCB2OC(C)(C)C(C)(C)O2)ccc1OCc1ccccc1 [Compound 8b] | Inactive |  | Inactive | 245 µM |  |  |  |  |  |  | IC50 ([1]; read-out: VRE IC50): 277 µM
CCCCCC(=O)N(Cc1ccc(OC)c(OC)c1)c1ccccc1 [Compound 21, N-(3,4-dimethoxyphenylmethyl)-N-(phenyl)-hexanamide] |  |  |  |  |  |  |  |  |  |  | melting point: 31.5 to 33.8 °C
COc1ccc(CN(C(=O)CCCCCCCCB2OC(C)(C)C(C)(C)O2)c2ccccc2)cc1OC [Compound 32, N-(3,4-dimethoxybenzyl)-N-phenyl-9-(4,4,5,5-tetramethyl-1,3,2-dioxaborolan-2-yl)nonamide] |  |  |  |  | unselective cytotoxic effects | only active against MRSA | unselective cytotoxic effects | unselective cytotoxic effects | unselective cytotoxic effects | unselective cytotoxic effects | S. warneri MIC90 [2, 13]: Inactive; S. warneri IC50 [2, 14]: Inactive; IC50 [3]: 42.6 ± 1.8 µM; MRSA MIC90 ([4]; 22 h, 37 °C, concentration for 90% growth inhibition, Inactive = inhibition above 300 μM): Inactive; IC50 ([4]; Staphylococcus aureus, MRSA, 22 h, 37 °C, average ± SD, Inactive = inhibition above 300 μM, read-out: MRSA IC50): 154 ± 37.1 µM; IC50 [5]: 112 ± 10 µM; IC50 [6]: 68.5 ± 15.1 µM; VRE MIC90 [7, 13]: Inactive; VRE IC50 [7, 14]: Inactive; IC50 [8]: 80.1 ± 3.9 µM; IC50 [9]: 77.1 ± 8.4 µM
CCCCc1ccc(N(Cc2ccc(OC)c(OC)c2)C(=O)CCCCCCCCB2OC(C)(C)C(C)(C)O2)cc1 [Compound 33, N-(4-butylphenyl)-N-(3,4-dimethoxybenzyl)-9-(4,4,5,5-tetramethyl-1,3,2-dioxaborolan-2-yl)nonamide] |  |  |  |  | unselective cytotoxic effects | inactive | unselective cytotoxic effects | unselective cytotoxic effects | unselective cytotoxic effects | unselective cytotoxic effects | antimicrobial activity against C. albicans (in words) [10]: inactive; antimicrobial activity against S. warneri (in words) [2]: inactive; IC50 [3]: 21.2 ± 3.5 µM; antimicrobial activity against P. vulgaris (in words) [11]: inactive; IC50 [5]: 24.2 ± 0.2 µM; IC50 [6]: 3.4 ± 2.2 µM; antimicrobial activity against VRE (in words) [7]: inactive; IC50 [8]: 20.3 ± 0.7 µM; antimicrobial activity against P. aeruginosa (in words) [12]: inactive; IC50 [9]: 20.9 ± 1.2 µM
CCCCCCCCCCCCCCc1ccc(N(Cc2ccc(OC)c(OC)c2)C(=O)CCCCCCCCB2OC(C)(C)C(C)(C)O2)cc1 [Compound 34, N-(3,4-dimethoxybenzyl)-N-(4-tetradecylphenyl)-9-(4,4,5,5-tetramethyl-1,3,2-dioxaborolan-2-yl)nonamide] |  |  |  |  | inactive | inactive | inactive | inactive | inactive | inactive | antimicrobial activity against C. albicans (in words) [10]: inactive; antimicrobial activity against S. warneri (in words) [2]: inactive; antimicrobial activity against P. vulgaris (in words) [11]: inactive; antimicrobial activity against VRE (in words) [7]: inactive; antimicrobial activity against P. aeruginosa (in words) [12]: inactive
OB(O)c1ccccc1 [Phenylboronic acid] | Inactive | Inactive | Inactive | 170 µM |  |  |  |  |  |  | 
